From US12377110B2, “Fospropofol methods and compositions” (Epalex Corporation, priority 2019, dated 2025)
Values joined by “and” are separate entries in the source; they are usually repeats but may differ in a detail not shown here. Identical values can stand only once. Counter-ions that a name gives are not always drawn. Like-named read-outs stand apart in the source and are kept apart here.

Legend:
[1] = type: physicochemical; conditions: for XRPD Analysis Post Dissolution: after IDR in faSSGf; for Average pH: during IDR run in 40 ml faSSGf media; for Average pH / IDR Average / IDR Duplicate: 37° C.; for IDR Average / IDR Duplicate: faSSGf media, 3 mm disc, 100 rpm; for IDR Average: average of duplicate; for IDR Duplicate: individual duplicate values
Procedure: Intrinsic Dissolution Rate was Determined in Simulated Intestinal Fluid at pH Base Buffer (FaSSGF):
Sodium chloride (2.0 g) and deionized water added to a 1000 ml volumetric flask, pH adjusted to 1.6 with concentrated hydrochloric […] acid, made up to volume with deionised water.
Phares SIF (simulated intestinal fluid) powder (0.06 g) was added to a 1 L volumetric flask and made to volume with base buffer.
(§1) Data were collected on a Sirius inform instrument fitted with a dual UV Dip Probe attachment and Ag/AgCI combination pH electrode. The electrode was calibrated using the four plus parameters derived from a blank titration. The base titrant was standardised by titration with TRIS. 0.5 M HCl and NaOH aqueous solutions were used as the acid and base titrants respectively for the testing. Stirring was facilitated by a dual overhead stirrer to allow thorough mixing within the vessel, and media was introduced via a capillary bundle attached to a dispensing bank comprised of six precision dispensing units. A Peltier heating jacket was used to maintain the temperature of the titration vessel. Discs were introduced to the vessel via the tablet picker housed in the probe arm, after the desired temperature of the media had been reached. Sirius inform Assay Design, Control and Refine software were used to design, run and refine data respectively.
One MEC data sets were then collected using five additions each of the water stock using 250, 500 and three times 750 μI aliquots, respectively. UV Spectra were then collected after each addition of the water stock to build a multi-point MEC calibration, using a 20 mm path length probe. The MEC data set was then imported into the dissolution data files in order to convert the UV absorbance measured to concentration. […] MEC data were collected in the dissolution media {faSSGf) and at 37° C. to match the dissolution experiments.
10-20 mg of the sample was compressed in a 3 mm disc recess, under 100 kg for 2 minutes, with greaseproof paper on the compression base, to form nondisintegrating discs. The discs were then plugged with a bung so that only one surface was exposed to the media during analysis and transferred to the Sirius inform dissolution apparatus. Analysis was performed at 37° C. in 40 ml faSSGf media for 1 hour with UV spectra collected every 30 seconds. A stir speed of 100 rpm was used with a 20 mm path length probe. The IDR was calculated based on the surface area of the 3 mm disc recess used (7.07 mm2 surface area). XRPD analysis was performed on all samples, both after compression of the material into the disc recess, and post dissolution analysis to observe any change in form. All analysis was performed using XRPD 2.
(§2) X-Ray Powder Diffraction (XRPD2): XRPD diffractograms were collected on a Bruker AXS C2 GADDS diffractometer using Cu Ka radiation (40 kV, 40 mA), an automated XYZ stage, a laser video microscope for auto sample positioning and a Vantec-500 2-dimensional area detector. X-ray optics consists of a single Gobel multilayer mirror coupled with a pinhole collimator of 0.3 mm. The beam divergence, i.e. the effective size of the X-ray beam on the sample, was approximately 4 mm. […] The sample was exposed to the X-ray beam for 120 seconds under ambient conditions. The software used for data collection and analysis was GADDS for Win7/XP and Diffrac Plus EVA respectively.

[2] = type: physicochemical; conditions: for XRPD Analysis Post Dissolution: after IDR at pH 4.5; for Average pH: during IDR run, 36 ml water and 4 ml GI media; for Average pH / IDR Average / IDR Duplicate: pH set to 4.5, 37° C.; for IDR Average / IDR Duplicate: 3 mm disc, 100 rpm; for IDR Average: average of duplicate; for IDR Duplicate: individual duplicate values
Procedure: Intrinsic Dissolution Rate was measure in GI tract buff (pH—4.5 buffer): 2.99 g sodium acetate trihydrate was dissolved in 14.0 ml 2N acetic acid in a 1000 ml volumetric flask, and then made to volume with deionised water.
as §1, with “DipProbe” for “Dip Probe”, “NaOHaqueous” for “NaOH aqueous”
One MEC data sets were then collected using five additions each of the water stock using 250, 500 and three times 750 μI aliquots, respectively. UV Spectra were then collected after each addition of the water stock to build a multi-point MEC calibration, using a 20 mm path length probe. The MEC data set was then imported into the dissolution data files in order to convert the UV absorbance measured to concentration. […] MEC data were collected at 37° C. to match the dissolution experiments.
Intrinsic Dissolution Rate (IDR): Approximately. 10-20 mg of the sample was compressed in a 3 mm disc recess, under 100 kg for 2 minutes, with greaseproof paper on the compression base, to form nondisintegrating discs. The discs were then plugged with a bung so that only one surface was exposed to the media during analysis and transferred to the Sirius inform dissolution apparatus. Analysis was performed at 37° C. in 36 ml water and 4 ml GI media with the pH set to 4.5, for 1 hour with UV spectra collected every 10 seconds. A stir speed of 100 rpm was used with a 20 mm path length probe. The IDR was calculated based on the surface area of the 3 mm disc recess used (7.07 mm2 surface area). XRPD analysis was performed on all samples, both after compression of the material into the disc recess, and post dissolution analysis to observe any change in form. All analysis was performed using XRPD 2.
as §2

[3] = XRPD after 7 days storage at 40° C./75% RH; type: physicochemical
Procedure: XRPD was again taken after 7 days storage at 40° C./75% RH. Form II of the diethylamine salt and Form II of the ethanolamine salt were formed by conversion of Form I of the respective salts after 7 days storage at 40° C./75% RH.
Form II of the calcium salt was produced from Form I of the calcium salt after 7 days storage at 40° C./75% RH.

| Molecule | XRPD Analysis Post Dissolution [1] | Average pH [1] | IDR Average [1] [mg/min/cm^2] | IDR Duplicate [1] | XRPD Analysis Post Dissolution [2] | Average pH [2] | IDR Average [2] [mg/min/cm^2] | IDR Duplicate [2] | Solid form (XRPD) after storage, starting from Form I [3] |
| --- | --- | --- | --- | --- | --- | --- | --- | --- | --- |
| [Ca] [Calcium] | Amorphous | 1.8 | 1.2 | 1.15 mg/min/cm^2 and 1.14 mg/min/cm^2 | Amorphous | 4.5 | 0.44 | 0.51 mg/min/cm^2 and 0.37 mg/min/cm^2 |  |
| NCCN [Ethylene Diamine] | Amorphous | 1.6 | 1.2 | 1.16 mg/min/cm^2 and 1.29 mg/min/cm^2 | Amorphous | 4.5 | 0.77 | 0.76 mg/min/cm^2 and 0.78 mg/min/cm^2 |  |
| [Mg] [Magnesium] | Amorphous | 1.8 | 1.6 | 1.51 mg/min/cm^2 and 1.67 mg/min/cm^2 | Amorphous | 4.5 | 0.46 | 0.47 mg/min/cm^2 and 0.44 mg/min/cm^2 |  |
| CC(C)c1cccc(C(C)C)c1OCOP(=O)(O)O [calcium salt of fospropofol (Form I)] |  |  |  |  |  |  |  |  | Form II |
| Sodium |  | 1.8 | 43 | 41.5 mg/min/cm^2 and 44.2 mg/min/cm^2 |  | 4.6 | 37 | 38.04 mg/min/cm^2 and 35.67 mg/min/cm^2 |  |
| Zinc | Amorphous | 1.8 | 1.3 | 1.22 mg/min/cm^2 and 1.31 mg/min/cm^2 | Amorphous | 4.5 | 0.18 | 0.19 mg/min/cm^2 and 0.18 mg/min/cm^2 |  |
